The target of series [1] is T1, Human Hsp90a N-terminal domain (Homo sapiens, UniProt P07900).
T1 construct: purification of the Human Hsp90a N-terminal domain; made in house
Kind of series: Isothermal titration calorimetry (ITC) binding to human Hsp90. Particulars: pH 7.4. How it is done: The ability of the compounds for use in the combinations of the invention to bind to human Hsp90 proteins was determined using isothermal titration calorimetry.
Isothermal titration calorimetry (ITC) experiments were performed with a VP-ITC titration calorimeter (Microcal Inc., Northampton, Mass., USA). […] All solutions were filtered and degassed prior to a titration being carried out. The enthalpy change resulting from each injection of ligand was obtained through integration of the calorimetric signal. Data were analysed using Origin 7.0 (Microcal Software Inc., Northampton, Mass.). Heats of dilution were estimated using the final injections of each individual titration and subtracted before data fitting. Different ITC experimental formats were employed in order to obtain compound dissociation constants (Kd's) over a wide range of affinities. […] In this type of experiment the stoichiometry parameter (N) was locked at 1 for data fitting.
On the technique in general: In ITC the heat of successive injections is recorded.

The subject of series [2] is Acute Promyelocytic Leukemia (APL). To be noted: APL patients; cited from earlier work.
Series [3] is described as follows: Solubility of acid addition salts in a liquid carrier (e.g. water). To be noted: salts of 1-(2,6-difluorophenyl)-N-[3-(5-morpholin-4-ylmethyl-1H-benzimidazol-2-yl)-1H-pyrazol-4-yl]-urea.
The nature of series [4]: Physicochemical properties of the crystalline lactate salt of compound (AA).
The next series relates to tubulin. Particulars: relative to epothilone A or paclitaxel; cited from earlier work.
The conditions of series [5]: mice; doses 10 times more than were needed for antitumour activity; cited from earlier work.
For series [6] the following is noted: clinical studies; cited from earlier work.
The conditions of series [7]: antitumour agent; cited from earlier work.
Series [8] relates to P-glycoprotein-overexpressing subline of CCRF-CEM. Particulars: cited from earlier work.
Another series relates to PKG. To be noted: cited from earlier work.
In the next series the test system is PKC. Particulars: cited from earlier work.
The test system of another series is OVCAR-3 tumour cells. Particulars: OVCAR-3 tumour cells in which PKB is amplified; concentrations of 50 and 100 microM; cited from earlier work.
The next series relates to HCT116 cell line. Kind of series: Anti-proliferative activity, Alamar Blue assay. Format: cell-based. To be noted: Homo sapiens, HCT-116, 72 h. As for the experimental part:
The anti-proliferative activities of compounds for use in the combinations of the invention can be determined by measuring the ability of the compounds to inhibition of cell growth in a number of cell lines such as the human colon cancer cell line HCT116. […] The method is based on the ability of viable cells to reduce resazurin to its fluorescent product resorufin. […] The number of viable cells is determined by Alamar Blue assay as before. Cell lines can be obtained from the ECACC (European Collection of cell Cultures).

Series [9] in a line: Solid-state and dissolution properties of the L-lactate salt of the compound of formula (1) and its crystalline forms. The format is physicochemical. To be noted: for stability of crystalline form: crystalline forms of the L-lactate salt of the compound of formula (1). The text has this: The lactic acid salts of the compound of formula (1) exist in one unstable form (FL3) and two stable forms (FL1 and FL2).

Series [10] is classed as physicochemical. From the text:
Samples for X-ray powder diffraction (XRPD) data collection were gently ground by marble mortar and loaded into a crystallographic capillary (from Hampton Research, Quartz or Glass Type 10, 0.4 or 0.7 mm diameter). Diffraction patterns were collected at room temperature using CuKa radiation (λ=1.5418 Å) from a Rigaku rotating anode RU3HR, Osmic blue confocal optics, ¼ c goniometer and a Rigaku HTC image plate detector. 2D Images were collected while spinning φ axis with a detector to crystal distance of 250 mm. Data collection was controlled by CrystalClear software and 2D images were converted to 1D plot (20 vs. Intensity) by Datasqueeze (intensity averaged over the azimuthal angle 0<χ<360° for 2θ range 3-30° in 0.02° steps). In house program AstexXRPD was used for manipulation and visualisation of 1D XRPD patterns.
It is nominally a tri-hydrate because there are 3 crystal water positions in the asymmetric unit, but they are not 100% occupied at room temperature and laboratory humidity. A saturated solution of form FL1 in methanol:water 9:1 was prepared at room temperature. Slow precipitation with approximately 4 volumes of acetone gave form FL2 which is stable in air.
A saturated solution of form FL1 in THF was prepared at room temperature. Slow precipitation with approximately 4 volumes of heptane gave form FL3.

Where [11] appears, read: lactate (particularly L-lactate) salt of compound (AA).

Here are results for 17 compounds from patent US8883790B2, “Pharmaceutical combinations” (Astex Therapeutics Limited, priority 2006, dated 2014).

Where a name gives a salt, the structure may show the parent alone. Where only a bound is given, the exact number is not on record here.

Broadly, the Kd is the concentration at which binding is half-saturated. For the compound `CC(C)c1cc(C(=O)N2Cc3ccc(CN4CCN(C)CC4)cc3C2)c(O)cc1O` [Example 55, (2,4-dihydroxy-5-isopropyl-phenyl)-[5-(4-methyl-piperazin-1-ylmethyl)-1,3-dihydro-isoindol-2-yl]-methanone], the Kd in [1] is below 100 nM.
Regarding `CC1=C(/C=C/C(C)=C/C=C/C(C)=C/C(=O)O)C(C)(C)CCC1` [Tretinoin, all-trans retinoic acid], the remissions induced in [2] is recorded as 64-100%.
Turning to “1-(2,6-difluorophenyl)-N-[3-(5-morpholin-4-ylmethyl-1H-benzimidazol-2-yl)-1H-pyrazol-4-yl]-urea [D-glucuronate]”, in series [3], the solubility entry was “greater than 25 mg/ml”.
On to `CC(C)c1cc(C(=O)N2Cc3ccc(CN4CCN(C)CC4)cc3C2)c(O)cc1O` [lactate salt, (2,4-dihydroxy-5-isopropyl-phenyl)-[5-(4-methyl-piperazin-1-ylmethyl)-1,3-dihydro-isoindol-2-yl]-methanone], for which the “solid-state stability in conditions of high relative humidity” value in [4] (lactate salt of compound (AA), gravimetric vapour sorption) is “stable anhydrous crystalline form”.
On to `C/C(=C\c1csc(C)n1)[C@@H]1C[C@@H]2O[C@]2(C)CCC[C@H](C)[C@H](O)[C@@H](C)C(=O)C(C)(C)[C@@H](O)CC(=O)O1` [epothilone B], for which the “potency in inducing tubulin polymerization in vitro” value in the series on tubulin is on record as “approximately twice as potent as epothilone A or paclitaxel”.
For the compound `CCOC(=O)c1ccc2[nH]c3c(OC)c4[nH]c5ccc(C(=O)OCC)cc5c4cc3c2c1` [SR-13668], the adverse effects result in [5] is listed as “no adverse effects”.
With `CC(C)c1cc(C(=O)N2Cc3ccc(CN4CCN(C)CC4)cc3C2)c(O)cc1O` [crystalline lactate salt, (2,4-dihydroxy-5-isopropyl-phenyl)-[5-(4-methyl-piperazin-1-ylmethyl)-1,3-dihydro-isoindol-2-yl]-methanone], in series [4] (lactate (particularly L-lactate) salt of 1-cyclopropyl-3-[3-(5-morpholin-4-ylmethyl-1H-benzoimidazol-2-yl)-1H-pyrazol-4-yl]-urea (compound (AA))), the hygroscopicity result is given as “non-hygroscopic”. In [4] (setting [11]), the solubility in water entry was “good solubility in water” and the storage stability entry is “stable to storage”.
As a reminder, the half-life is the time in which the quantity being followed falls by half. Regarding `CCCCCCCCCCCCCCCCCCOP(=O)([O-])OC1CC[N+](C)(C)CC1` [KRX-0401, Perifosine], the half-life in [6] was around 100 h.
As for `CCN[C@H]1CO[C@@H](O[C@H]2[C@H](O[C@H]3C#C/C=C\C#C[C@]4(O)CC(=O)C(NC(=O)OC)=C3/C4=C\CSSSC)O[C@H](C)[C@@H](NO[C@H]3C[C@H](O)[C@H](SC(=O)c4c(C)c(I)c(O[C@@H]5O[C@@H](C)[C@H](O)[C@@H](OC)[C@H]5O)c(OC)c4OC)[C@@H](C)O3)[C@@H]2O)C[C@@H]1OC` [Calicheamicin], the “potency relative to adriamycin” value in series [7] is given as “over 1,000 times”.
As usually defined, the IC50 is the point on the concentration scale where inhibition reaches its midpoint. With `C/C1=C/C[C@@H](/C(C)=C/c2csc(C)n2)OC(=O)C[C@H](O)C(C)(C)C(=O)[C@H](C)[C@@H](O)[C@@H](C)CCC1` [desoxyepothilone B], the IC50 in [8] was 17 nM.
Turning to `O=S(=O)(NCCNCC=C(c1ccccc1)c1ccccc1)c1cccc2cnccc12` [NL-71-101], the results for the concentration for half-maximal inhibition (IC50) with PKG and in the series with PKC were 36000 nM and 104000 nM, respectively. The apoptosis induction entry with OVCAR-3 tumour cells was “induced apoptosis”.
`CC(C)c1cc(C(=O)N2Cc3ccc(C(=O)N4CCNCC4)cc3C2)c(O)cc1O` [Example 54, (2,4-dihydroxy-5-isopropyl-phenyl)-[5-(piperazine-1-carbonyl)-1,3-dihydro-isoindol-2-yl]-methanone hydrochloride]: in the series with HCT116 cell line, the IC50 was below 1000 nM.
On the same count and under the same terms, to `CC(C)c1cc(C(=O)N2Cc3ccccc3C2)c(O)cc1O` [Example 5, (1,3-Dihydro-isoindol-2-yl)-(2,4-dihydroxy-5-isopropyl-phenyl)-methanone] belongs below 1000 nM.
Consider `CC(C)c1cc(C(=O)N2Cc3ccc(CN4CCN(C)CC4)cc3C2)c(O)cc1O` [(2,4-dihydroxy-5-isopropyl-phenyl)-[5-(4-methyl-piperazin-1-ylmethyl)-1,3-dihydro-isoindol-2-yl]-methanone], for which the hygroscopicity entry in [9] (L-lactate of (2,4-dihydroxy-5-isopropyl-phenyl)-[5-(4-methyl-piperazin-1-ylmethyl)-1,3-dihydro-isoindol-2-yl]-methanone) is listed as “non-hygroscopic”. Besides, in series [9] (compared with free base and hydrochloric and sulphuric acid salts), the rate of solubility entry was “better rate of solubility than the free base and other salts tested”.
For the compound `CC(C)c1cc(C(=O)N2Cc3ccc(CN4CCN(C)CC4)cc3C2)c(O)cc1O` [FL1, (2,4-dihydroxy-5-isopropyl-phenyl)-[5-(4-methyl-piperazin-1-ylmethyl)-1,3-dihydro-isoindol-2-yl]-methanone L-lactate], in series [9], the “stability of crystalline form” value is recorded as “stable”. Further, the “Stability of crystal form” value in [10] is “stable in air and at 40 °C and 75% RH for at least one month”.
Consider `CC(C)c1cc(C(=O)N2Cc3ccc(CN4CCN(C)CC4)cc3C2)c(O)cc1O` [FL2, (2,4-dihydroxy-5-isopropyl-phenyl)-[5-(4-methyl-piperazin-1-ylmethyl)-1,3-dihydro-isoindol-2-yl]-methanone L-lactate], for which the “stability of crystalline form” value in [9] is reported as “stable hydrate”. Also, the “Stability of crystal form” value in [10] is on record as “stable in air”.
For `CC(C)c1cc(C(=O)N2Cc3ccc(CN4CCN(C)CC4)cc3C2)c(O)cc1O` [FL3, (2,4-dihydroxy-5-isopropyl-phenyl)-[5-(4-methyl-piperazin-1-ylmethyl)-1,3-dihydro-isoindol-2-yl-]-methanone L-lactate], in series [9], the “stability of crystalline form” value is on record as “unstable”. Also, the “Stability of crystal form” value in [10] is on record as “transforms in air into form FL1”. Further, in series [10] (sample dried in air for 2 days), the “Crystal form by XRPD after drying in air” value was “conversion to form FL1 had occurred”.
